ChEMBL document CHEMBL3745595, “Flavoalkaloids and Flavonoids from Astragalus monspessulanus” (J Nat Prod, 2015)

Assays:
Hepatocyte = test: Hepatoprotective activity against tert-butyl hydroperoxide-induced oxidative stress in Wistar rat hepatocytes assessed as cell viability at 60 ug/ml by tryphan blue exclusion method (reference value: 74%); format: functional; settings: for viability at 60 µg/mL: read-out: Activity
[1] = Antioxidant activity assessed as reactive oxygen species scavenging activity; format: physicochemical

Activity [1]	Molecule	viability at 60 µg/mL (Hepatocyte) [%]	Activity (Hepatocyte) [%]
Active	O=c1c(O[C@@H]2O[C@H](CO)[C@H](O)[C@H](O)[C@H]2O)c(-c2ccc(O)cc2)oc2cc(O)cc(O)c12 [TRIFOLIN]	191	
	SILYMARIN [listing 1 of 2 here]		182
Active	SILYMARIN [listing 2 of 2 here]		
Active	C[C@@H]1O[C@@H](O[C@H]2[C@H](Oc3c(-c4ccc(O)cc4)oc4cc(O)cc(O)c4c3=O)O[C@H](COC(=O)CC(C)(O)CC(=O)O)[C@H](O)[C@@H]2O)[C@H](O)[C@H](O)[C@H]1O (stereo partly specified)	155	
Active	O=c1cc(-c2ccc(O)cc2)oc2cc(O[C@@H]3O[C@H](CO)[C@@H](O)[C@H](O)[C@H]3O)cc(O)c12 [APIGETRIN]	177	
Active	C[C@@H]1O[C@@H](OC[C@H]2O[C@@H](Oc3c(-c4ccc(O)c(O)c4)oc4cc(O)cc(O)c4c3=O)[C@H](O)[C@@H](O)[C@@H]2O)[C@H](O)[C@H](O)[C@H]1O [RUTIN]	168	
Active	C[C@@H]1O[C@@H](OC[C@H]2O[C@@H](Oc3c(-c4ccc(O)c(O)c4)oc4cc(O)cc(O)c4c3=O)[C@H](O)[C@@H](O)[C@H]2O)[C@H](O)[C@H](O)[C@H]1O	159	
Active	C[C@@H]1O[C@@H](OC[C@H]2O[C@@H](Oc3c(-c4ccc(O)cc4)oc4cc(O)cc(O)c4c3=O)[C@H](O[C@@H]3O[C@@H](C)[C@H](O)[C@@H](O)[C@H]3O)[C@@H](O)[C@H]2O)[C@H](O)[C@H](O)[C@H]1O	168	
Active	C[C@@H]1O[C@@H](O[C@H]2[C@H](Oc3c(-c4ccc(O)c(O)c4)oc4cc(O)cc(O)c4c3=O)O[C@H](COC(=O)CC(C)(O)CC(=O)O)[C@H](O)[C@@H]2O)[C@H](O)[C@H](O)[C@H]1O (stereo partly specified)	182	
Active	C[C@@H]1O[C@@H](OC[C@H]2O[C@@H](Oc3c(-c4ccc(O)cc4)oc4c(CN5CCCC(O)C5=O)c(O)cc(O)c4c3=O)[C@H](O[C@@H]3O[C@@H](C)[C@H](O)[C@@H](O)[C@H]3O)[C@@H](O)[C@H]2O)[C@H](O)[C@H](O)[C@H]1O (stereo partly specified)	177	
Active	C[C@@H]1O[C@@H](OC[C@H]2O[C@@H](Oc3c(-c4ccc(O)cc4)oc4cc(O[C@@H]5O[C@H](CO)[C@@H](O)[C@H](O)[C@H]5O)cc(O)c4c3=O)[C@H](O[C@@H]3O[C@@H](C)[C@H](O)[C@@H](O)[C@H]3O)[C@@H](O)[C@H]2O)[C@H](O)[C@H](O)[C@H]1O	164	
Active	C[C@@H]1O[C@@H](OC[C@H]2O[C@@H](Oc3c(-c4ccc(O)c(O)c4)oc4cc(O)cc(O)c4c3=O)[C@H](O[C@@H]3O[C@@H](C)[C@H](O)[C@@H](O)[C@H]3O)[C@@H](O)[C@H]2O)[C@H](O)[C@H](O)[C@H]1O	195	
Active	C[C@@H]1O[C@@H](OC[C@H]2O[C@@H](Oc3c(-c4ccc(O)c(O)c4)oc4cc(O[C@@H]5O[C@H](CO)[C@@H](O)[C@H](O)[C@H]5O)cc(O)c4c3=O)[C@H](O[C@@H]3O[C@@H](C)[C@H](O)[C@@H](O)[C@H]3O)[C@@H](O)[C@H]2O)[C@H](O)[C@H](O)[C@H]1O	186	
Active	C[C@@H]1O[C@@H](OC[C@H]2O[C@@H](Oc3c(-c4ccc(O)c(O)c4)oc4c(CN5CCCC(O)C5=O)c(O)cc(O)c4c3=O)[C@H](O[C@@H]3O[C@@H](C)[C@H](O)[C@@H](O)[C@H]3O)[C@@H](O)[C@H]2O)[C@H](O)[C@H](O)[C@H]1O (stereo partly specified)	159	
